Results taken from article PMC8309005, “Novel Non-Congeneric Derivatives of the Choline Kinase Alpha Inhibitor ICL-CCIC-0019” (Pharmaceutics, 2021).
Like-named read-outs stand apart in the source and are kept apart here.

Assays:
[1] = Caco-2 permeability and efflux study; assay type: in vitro ADME, human
Protocol: (§1) The ADME study for ICL-CCIC-0019, CK14, CK145 (5), CK146 (4) and CK147 (8) was performed by Charles River Drug Discovery Services (Essex, UK).
(§2) The predicted in vitro pharmacokinetic characteristics of compounds were evaluated by four ADME assays, namely kinetic solubility assay, metabolic stability assay using human liver microsome S9, permeability and efflux study using the Caco-2 cell line, and matrix stability assay using fasted state simulated gastric fluid (FaSSGF). All tested CHKA inhibitors were highly soluble (>150 μM) in 0.1 M PBS (2% DMSO) (Table 1). […] The in vivo clearance was calculated to predict the actual clearance in humans by scaling the clearance values, which takes into account liver weight, microsomes per liver and liver blood flow. […] In Caco-2 cell permeability assay, drug permeability was investigated and presented as apparent permeability coefficients (Papp) in A to B (A-B, apical to basolateral direction) and B to A (B-A, basolateral to apical direction).

[2] = molecular target: phosphatidylinositol 4-kinase beta (PIK4CB) (Homo sapiens, UniProt Q9UBF8); experiment: Lipid kinase screening (ADP-Glo), PIK4CB; assay type: biochemical
Protocol: (§3) The lipid kinase screening for ICL-CCIC-0019, CK14, CK145 (5), CK146 (4) and CK147 (8) (testing concentration for all compounds: 10 μM) was performed by MRC PPU International Centre for Kinase Profiling (Dundee, UK). The lipid kinase screening panel includes 15 human recombinant lipid kinases and the tests used Promega ADP Glo^TM High Throughput Assay kit (Promega, Southampton, UK). For each assay, reference compounds were used as quality control. Finally, mean percentage activity inhibited by compounds and standard deviation for all the repeats were calculated.

DGK b = DGK b (Homo sapiens, UniProt Q9Y6T7); experiment: Lipid kinase screening (ADP-Glo), DGK b; assay type: biochemical
Protocol: as §3

A549 = settings: cited from earlier work
Kinetic solubility assay = assay type: physicochemical; settings: aqueous buffer, kinetic from dmso stock
Protocol: as §1, §2

[3] = system: Δ49N CHKA2 (recombinant CHKA2); settings: read-out: IC50 against recombinant CHKA2; cited from earlier work
HCT-116 = settings: cited from earlier work
DGK g = DGK g (Homo sapiens, UniProt P49619); experiment: Lipid kinase screening (ADP-Glo), DGK g; assay type: biochemical
Protocol: as §3

PI3Ka E545K + p85 = PI3Ka E545K + p85 (Homo sapiens, UniProt P42336, E545K); experiment: Lipid kinase screening (ADP-Glo), PI3Ka E545K + p85; assay type: biochemical
Protocol: as §3

SPHK1 = SPHK1 (Homo sapiens, UniProt Q9NYA1); experiment: Lipid kinase screening (ADP-Glo), SPHK1; assay type: biochemical
Protocol: as §3

PI3K g = PI3K g (Homo sapiens, UniProt P48736); experiment: Lipid kinase screening (ADP-Glo), PI3K g; assay type: biochemical
Protocol: as §3

CHK b (CHKB) = CHK b (CHKB) (Homo sapiens, UniProt Q9Y259); experiment: Lipid kinase screening (ADP-Glo), CHKB; assay type: biochemical
Protocol: as §3

PI3K b = PI3K b (Homo sapiens, UniProt P42338); experiment: Lipid kinase screening (ADP-Glo), PI3K b; assay type: biochemical
Protocol: as §3

PI4K2a = PI4K2a (Homo sapiens, UniProt Q9BTU6); experiment: Lipid kinase screening (ADP-Glo), PI4K2a; assay type: biochemical
Protocol: as §3

[4] = Human microsomal metabolic stability assay; assay type: in vitro ADME
Protocol: as §1, §2

PI3Ka E524K + p85 = experiment: Lipid kinase screening (ADP-Glo), PI3Ka E524K + p85; assay type: biochemical, human; settings: 10 μM
Protocol: as §3

PI3K a = PI3K a (Homo sapiens, UniProt P42336); experiment: Lipid kinase screening (ADP-Glo), PI3K a; assay type: biochemical
Protocol: as §3

[5] = system: [18F]D4-FCH uptake in C4-2B cells; experiment: [18F]D4-FCH uptake in vitro study, C4-2B; assay type: cell-based; settings: Homo sapiens
Protocol: HCT-116 and C4-2B cells were seeded at a density of 5 × 10^5 cells per well into 6-well plates and incubated overnight. Cells were treated with 1 or 10 µM CHKA inhibitors (CK14, CK145, CK146 and CK147) for 1 h and pulsed with [^18F]D4-FCH (740 kBq) in presence of inhibitors in 1 mL for an additional hour at 37 °C. Cells were washed with ice-cold PBS three times and lysed in 1 mL RIPA buffer. The radioactivity of 800 µL lysate from each well was counted on a gamma counter (Perkin Elmer, Beaconsfield, UK) and normalized to protein content as determined by BCA assay.

DGK z = DGK z (Homo sapiens, UniProt Q13574); experiment: Lipid kinase screening (ADP-Glo), DGK z; assay type: biochemical
Protocol: as §3

[6] = Matrix stability assay in fasted state simulated gastric fluid (FaSSGF); assay type: in vitro ADME; settings: for half-life: pH 1.6
Protocol: as §1, §2

PIP5K2A = molecular target: T1, PIP5K2A (Homo sapiens, UniProt P48426); experiment: Lipid kinase screening (ADP-Glo), PIP5K2A; assay type: biochemical
T1 sequence (P48426 1-406): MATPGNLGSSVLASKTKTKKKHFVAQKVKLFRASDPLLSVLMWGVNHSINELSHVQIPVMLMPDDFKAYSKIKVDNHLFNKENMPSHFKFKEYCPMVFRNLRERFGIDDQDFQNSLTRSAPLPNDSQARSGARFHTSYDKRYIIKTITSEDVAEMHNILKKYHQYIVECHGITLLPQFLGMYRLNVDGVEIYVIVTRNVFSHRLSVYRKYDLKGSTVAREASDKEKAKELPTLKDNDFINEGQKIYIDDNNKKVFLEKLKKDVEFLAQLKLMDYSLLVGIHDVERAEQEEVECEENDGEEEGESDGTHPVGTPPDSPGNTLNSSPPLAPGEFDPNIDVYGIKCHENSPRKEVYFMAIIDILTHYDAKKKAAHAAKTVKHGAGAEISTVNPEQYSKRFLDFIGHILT
Protocol: as §3

SPHK2 = molecular target: T2, SPHK2 (Homo sapiens, UniProt Q9NRA0); experiment: Lipid kinase screening (ADP-Glo), SPHK2; assay type: biochemical
T2 sequence (Q9NRA0 1-654): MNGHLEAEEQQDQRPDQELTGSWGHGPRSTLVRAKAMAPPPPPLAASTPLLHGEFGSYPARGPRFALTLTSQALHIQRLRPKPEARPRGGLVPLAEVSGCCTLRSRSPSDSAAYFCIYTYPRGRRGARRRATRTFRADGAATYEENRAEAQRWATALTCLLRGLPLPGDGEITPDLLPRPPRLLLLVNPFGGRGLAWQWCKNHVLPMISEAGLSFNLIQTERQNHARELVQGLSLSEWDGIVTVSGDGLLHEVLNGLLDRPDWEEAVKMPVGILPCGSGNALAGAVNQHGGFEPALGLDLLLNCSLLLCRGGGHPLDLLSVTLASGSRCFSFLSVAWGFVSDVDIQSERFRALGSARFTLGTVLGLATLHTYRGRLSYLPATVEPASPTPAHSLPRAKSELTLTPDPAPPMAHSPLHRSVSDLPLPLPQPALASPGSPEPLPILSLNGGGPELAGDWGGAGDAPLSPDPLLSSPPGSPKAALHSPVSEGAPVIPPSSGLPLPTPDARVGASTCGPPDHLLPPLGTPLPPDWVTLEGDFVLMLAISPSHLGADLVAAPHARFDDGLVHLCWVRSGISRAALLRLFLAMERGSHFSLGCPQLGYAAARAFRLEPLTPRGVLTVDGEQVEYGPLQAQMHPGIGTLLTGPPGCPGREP
Protocol: as §3

CHK a (CHKA) = CHK a (CHKA) (Homo sapiens, UniProt P35790); experiment: Lipid kinase screening (ADP-Glo), CHKA; assay type: biochemical
Protocol: as §3

Caco-2 cell line = experiment: Caco-2 permeability and efflux study; assay type: in vitro ADME, human; settings: Caco-2
Protocol: as §1, §2

[7] = Conjugate stability test of CK147 in medium (HPLC); assay type: physicochemical; settings: up to 72 h
Protocol: To assess stability of CK147 in medium, 5 mL of medium containing 10% FCS and 1% L-glutamine was added sterilely to a six-well plate. Next, 1.7 μL of 300 mM CK147 in DMSO or 1.7 μL DMSO was added into wells and the plate was gently shaken for 5 s before being incubated at 37 °C in a humidified atmosphere containing 5% CO2. After 0, 2, 4, 6, 24, 48 and 72 h, 200 μL aliquots of medium from each well were transferred into a 1.5-mL tube containing 198.4 μL acetonitrile and 1.6 μL of 2.5 mg/mL ICL-CCIC-0019 as an internal standard (IS) […]. […] One hundred microliters of the solution were injected into the HPLC system described in Supplementary HPLC method D. Three repeats were performed for each sample.

Chain of phosphatidylinositol 4-kinase beta (PIK4CB) (Q9UBF8 whole entry): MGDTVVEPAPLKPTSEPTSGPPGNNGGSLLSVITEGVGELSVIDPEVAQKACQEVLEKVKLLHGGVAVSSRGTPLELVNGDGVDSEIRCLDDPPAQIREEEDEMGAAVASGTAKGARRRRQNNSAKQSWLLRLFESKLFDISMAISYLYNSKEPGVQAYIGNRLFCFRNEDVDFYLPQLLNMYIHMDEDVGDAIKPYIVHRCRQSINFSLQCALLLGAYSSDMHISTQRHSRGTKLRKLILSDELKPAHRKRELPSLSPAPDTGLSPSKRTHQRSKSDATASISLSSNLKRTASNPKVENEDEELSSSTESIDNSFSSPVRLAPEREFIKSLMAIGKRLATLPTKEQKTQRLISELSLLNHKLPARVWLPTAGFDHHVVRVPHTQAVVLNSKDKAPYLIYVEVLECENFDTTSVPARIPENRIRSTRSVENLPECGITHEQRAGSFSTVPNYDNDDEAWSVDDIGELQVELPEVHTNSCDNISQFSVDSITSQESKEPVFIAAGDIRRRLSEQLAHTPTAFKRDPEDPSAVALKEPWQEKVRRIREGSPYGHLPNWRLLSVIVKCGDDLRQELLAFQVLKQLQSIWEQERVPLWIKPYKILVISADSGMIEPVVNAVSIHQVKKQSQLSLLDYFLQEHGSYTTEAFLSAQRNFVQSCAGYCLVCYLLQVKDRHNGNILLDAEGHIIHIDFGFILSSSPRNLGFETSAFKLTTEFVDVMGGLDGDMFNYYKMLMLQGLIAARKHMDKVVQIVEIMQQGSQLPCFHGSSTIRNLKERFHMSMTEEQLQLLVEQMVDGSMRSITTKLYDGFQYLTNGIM
Chain of SPHK1 (Q9NYA1 whole entry): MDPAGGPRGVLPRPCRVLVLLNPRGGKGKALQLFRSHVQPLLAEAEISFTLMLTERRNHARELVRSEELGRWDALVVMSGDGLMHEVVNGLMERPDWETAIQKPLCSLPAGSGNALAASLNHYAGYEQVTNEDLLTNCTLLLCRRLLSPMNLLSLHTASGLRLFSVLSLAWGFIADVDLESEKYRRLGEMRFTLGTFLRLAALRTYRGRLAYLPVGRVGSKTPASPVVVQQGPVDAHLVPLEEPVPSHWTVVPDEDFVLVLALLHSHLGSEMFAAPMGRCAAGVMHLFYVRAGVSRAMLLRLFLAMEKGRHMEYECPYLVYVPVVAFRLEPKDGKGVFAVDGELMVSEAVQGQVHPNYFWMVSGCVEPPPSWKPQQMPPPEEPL
Chain of DGK z (Q13574 whole entry): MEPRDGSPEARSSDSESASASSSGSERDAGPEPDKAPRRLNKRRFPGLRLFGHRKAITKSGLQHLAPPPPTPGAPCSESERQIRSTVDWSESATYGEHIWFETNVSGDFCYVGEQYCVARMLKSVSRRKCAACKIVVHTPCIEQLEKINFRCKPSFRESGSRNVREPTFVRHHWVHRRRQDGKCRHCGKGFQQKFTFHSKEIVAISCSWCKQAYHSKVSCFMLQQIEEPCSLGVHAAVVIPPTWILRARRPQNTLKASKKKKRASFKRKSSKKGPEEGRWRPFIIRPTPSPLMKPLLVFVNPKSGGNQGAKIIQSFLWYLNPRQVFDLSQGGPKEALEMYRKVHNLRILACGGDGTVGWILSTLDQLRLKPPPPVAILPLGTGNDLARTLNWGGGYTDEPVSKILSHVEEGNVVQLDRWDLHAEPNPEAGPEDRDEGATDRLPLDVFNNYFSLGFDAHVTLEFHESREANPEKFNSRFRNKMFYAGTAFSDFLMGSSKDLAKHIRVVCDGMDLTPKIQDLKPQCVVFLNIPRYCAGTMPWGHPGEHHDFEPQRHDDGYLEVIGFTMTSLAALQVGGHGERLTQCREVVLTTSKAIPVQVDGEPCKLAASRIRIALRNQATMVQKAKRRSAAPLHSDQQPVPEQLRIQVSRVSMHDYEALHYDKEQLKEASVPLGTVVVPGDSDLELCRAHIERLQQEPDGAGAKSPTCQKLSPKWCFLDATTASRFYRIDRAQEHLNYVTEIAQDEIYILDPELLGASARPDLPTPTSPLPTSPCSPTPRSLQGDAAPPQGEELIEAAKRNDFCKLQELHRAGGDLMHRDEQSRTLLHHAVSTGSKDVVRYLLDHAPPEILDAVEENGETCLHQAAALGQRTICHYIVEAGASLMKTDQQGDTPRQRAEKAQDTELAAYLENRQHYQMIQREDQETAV
Chain of CHK a (CHKA) (P35790 whole entry): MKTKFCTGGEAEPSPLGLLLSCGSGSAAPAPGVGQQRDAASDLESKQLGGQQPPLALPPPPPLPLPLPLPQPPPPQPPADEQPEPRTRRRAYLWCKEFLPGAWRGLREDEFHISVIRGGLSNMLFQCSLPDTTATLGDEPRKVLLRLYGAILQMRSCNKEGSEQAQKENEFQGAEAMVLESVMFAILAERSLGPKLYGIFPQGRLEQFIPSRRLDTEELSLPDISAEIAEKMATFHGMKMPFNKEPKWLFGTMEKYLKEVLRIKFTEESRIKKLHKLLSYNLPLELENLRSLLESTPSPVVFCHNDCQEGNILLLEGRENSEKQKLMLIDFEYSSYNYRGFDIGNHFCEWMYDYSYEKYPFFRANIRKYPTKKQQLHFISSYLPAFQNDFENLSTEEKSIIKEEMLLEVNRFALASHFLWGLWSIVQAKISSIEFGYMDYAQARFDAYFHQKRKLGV
Chain of PI3K g (P48736 whole entry): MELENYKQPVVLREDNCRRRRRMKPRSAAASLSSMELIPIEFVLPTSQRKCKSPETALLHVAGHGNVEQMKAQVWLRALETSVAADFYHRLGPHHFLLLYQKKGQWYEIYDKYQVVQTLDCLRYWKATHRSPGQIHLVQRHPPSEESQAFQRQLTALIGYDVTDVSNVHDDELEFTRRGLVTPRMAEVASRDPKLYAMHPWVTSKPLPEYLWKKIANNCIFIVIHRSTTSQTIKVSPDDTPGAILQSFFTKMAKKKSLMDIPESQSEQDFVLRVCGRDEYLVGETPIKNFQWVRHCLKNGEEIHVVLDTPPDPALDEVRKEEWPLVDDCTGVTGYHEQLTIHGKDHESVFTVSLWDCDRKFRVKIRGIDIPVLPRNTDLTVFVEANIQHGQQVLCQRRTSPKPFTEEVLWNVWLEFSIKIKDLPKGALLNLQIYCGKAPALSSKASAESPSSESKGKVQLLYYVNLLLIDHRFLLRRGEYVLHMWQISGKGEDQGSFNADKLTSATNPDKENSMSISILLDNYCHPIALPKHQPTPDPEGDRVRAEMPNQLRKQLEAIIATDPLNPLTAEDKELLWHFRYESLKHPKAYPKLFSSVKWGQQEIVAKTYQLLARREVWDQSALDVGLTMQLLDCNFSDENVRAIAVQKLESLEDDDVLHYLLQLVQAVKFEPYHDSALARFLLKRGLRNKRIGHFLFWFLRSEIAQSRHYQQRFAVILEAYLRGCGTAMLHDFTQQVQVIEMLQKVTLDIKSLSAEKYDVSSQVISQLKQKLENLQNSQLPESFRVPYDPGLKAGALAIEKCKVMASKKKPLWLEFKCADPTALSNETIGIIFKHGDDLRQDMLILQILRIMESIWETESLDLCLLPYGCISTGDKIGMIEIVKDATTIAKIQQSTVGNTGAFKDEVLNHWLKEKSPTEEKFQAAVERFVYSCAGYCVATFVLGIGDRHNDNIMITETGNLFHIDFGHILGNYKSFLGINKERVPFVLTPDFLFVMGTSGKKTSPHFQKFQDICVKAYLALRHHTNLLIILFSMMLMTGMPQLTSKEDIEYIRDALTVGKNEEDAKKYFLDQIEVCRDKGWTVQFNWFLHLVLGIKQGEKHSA
Chain of DGK g (P49619 whole entry): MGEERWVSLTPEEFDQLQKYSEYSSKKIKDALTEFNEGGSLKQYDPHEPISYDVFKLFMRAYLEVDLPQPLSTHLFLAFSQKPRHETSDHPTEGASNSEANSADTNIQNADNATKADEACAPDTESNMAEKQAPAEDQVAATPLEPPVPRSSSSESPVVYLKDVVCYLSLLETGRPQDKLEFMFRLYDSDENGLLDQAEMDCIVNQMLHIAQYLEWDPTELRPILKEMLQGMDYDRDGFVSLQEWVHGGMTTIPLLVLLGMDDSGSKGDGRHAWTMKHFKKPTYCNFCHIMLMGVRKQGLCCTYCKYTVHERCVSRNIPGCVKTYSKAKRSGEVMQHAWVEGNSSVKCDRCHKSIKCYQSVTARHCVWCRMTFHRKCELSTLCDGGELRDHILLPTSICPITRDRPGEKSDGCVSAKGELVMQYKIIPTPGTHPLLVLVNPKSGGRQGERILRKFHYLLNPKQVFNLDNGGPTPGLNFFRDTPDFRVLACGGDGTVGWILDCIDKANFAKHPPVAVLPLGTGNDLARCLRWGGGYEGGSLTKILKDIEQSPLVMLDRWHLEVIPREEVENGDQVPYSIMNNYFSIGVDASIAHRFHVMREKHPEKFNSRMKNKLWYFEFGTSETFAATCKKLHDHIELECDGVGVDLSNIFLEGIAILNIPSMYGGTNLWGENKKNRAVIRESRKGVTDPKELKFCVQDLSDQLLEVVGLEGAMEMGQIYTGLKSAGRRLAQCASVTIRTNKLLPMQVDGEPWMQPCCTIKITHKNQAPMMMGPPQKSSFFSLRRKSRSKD
Chain of CHK b (CHKB) (Q9Y259 whole entry): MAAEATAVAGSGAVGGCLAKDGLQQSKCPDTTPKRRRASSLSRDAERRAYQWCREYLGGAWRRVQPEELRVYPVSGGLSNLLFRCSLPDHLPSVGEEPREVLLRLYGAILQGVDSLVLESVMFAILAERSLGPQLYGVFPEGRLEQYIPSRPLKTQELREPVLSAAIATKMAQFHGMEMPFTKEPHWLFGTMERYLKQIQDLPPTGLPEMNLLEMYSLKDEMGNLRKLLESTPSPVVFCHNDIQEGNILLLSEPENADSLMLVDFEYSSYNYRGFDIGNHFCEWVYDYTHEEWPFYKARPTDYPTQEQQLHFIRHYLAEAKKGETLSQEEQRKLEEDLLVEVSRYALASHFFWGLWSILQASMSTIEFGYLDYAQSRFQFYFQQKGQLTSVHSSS

## CN(C)c1cc[n+](CCCCCCCCCCCCCC[n+]2ccc(N(C)C)cc2)cc1.[Br-].[Br-] [CK14, reference compound]
[1]; human, Caco-2, read-out: Efflux ratio (Papp B-A/Papp A-B)
  efflux ratio: > 87
[1]; human, Caco-2, apical to basolateral, read-out: Papp A-B
  Papp A→B: < 0.1 ×10⁻⁶ cm/s
[1]; human, Caco-2, basolateral to apical, read-out: Papp B-A
  Papp B→A: 8.7 ×10⁻⁶ cm/s
[2]
  inhibition at 10 µM: -4.1%
DGK b
  inhibition at 10 µM: 11.9%
A549
  GI50: 0.33 µM
Kinetic solubility assay; 0.1 M PBS (2% DMSO), read-out: Kinetic Solubility: Solubility
  solubility kinetic: 154 µM
[3]
  IC50: 0.15 µM
HCT-116
  GI50: 0.29 µM
DGK g
  inhibition at 10 µM: 12.8%
PI3Ka E545K + p85
  inhibition at 10 µM: -15.2%
SPHK1
  inhibition at 10 µM: -10.1%
PI3K g
  inhibition at 10 µM: 16.4%
CHK b (CHKB)
  inhibition at 10 µM: -33.7%
PI3K b
  inhibition at 10 µM: -36.2%
PI4K2a
  inhibition at 10 µM: -48.8%
[4]; human
  PCT_LBF % (percentage of compound removed compared to liver blood flow): <45%
[4]; human liver microsome S9
  Human Microsomal Metabolic Stability: Remaining %: 101%
[4]; human, human liver microsome S9, human liver microsome S9, read-out: Human Microsomal Metabolic Stability: Clint
  microsomal CLint: < 14 µL/min/mg
[4]; human, human liver microsome S9, human liver microsome S9, read-out: Human Microsomal Metabolic Stability: Half-life
  half-life: > 1.67 h
[4]; scaled from microsomal clearance (liver weight, microsomes per liver, liver blood flow), human
  Predicted in vivo clearance: <10 mL/min/kg
PI3Ka E524K + p85
  % Inhibition PI3Ka E524K + p85: 1.6%
PI3K a
  inhibition at 10 µM: -1.9%
[5]; 1 μM, read-out: inhibition of [18F]D4-FCH uptake (mean of CK14, CK145 and CK146)
  inhibition at 1 µM: 46 ± 1%
[5]; 10 μM
  inhibition at 10 µM: 93 ± 5%
DGK z
  inhibition at 10 µM: 4.7%
[6]; FaSSGF
  Matrix Stability: Remaining %: 95%
[6]; fasted state simulated gastric fluid (FaSSGF), fasted state simulated gastric fluid, read-out: FaSSGF stability Half-life (converted)
  half-life: > 10 h
PIP5K2A
  inhibition at 10 µM: -2.7%
SPHK2
  inhibition at 10 µM: 16%
CHK a (CHKA)
  inhibition at 10 µM: 77%

## CN(C)c1cc[n+](CCCCCCCCCCCCCC[n+]2ccc(N3CCN(C(=O)CSC4CC(=O)N(CCC(=O)NCCCCCC(=O)NCCCCC(NC(=O)NC(CCC(=O)O)C(=O)O)C(=O)O)C4=O)CC3)cc2)cc1 (stereo not drawn) [CK147]
[1]; Caco-2
  Papp A→B: < 0.1 ×10⁻⁶ cm/s
  Papp B→A: < 0.1 ×10⁻⁶ cm/s
Caco-2 cell line
  Efflux ratio (Papp B-A/Papp A-B): too poor to permit calculation of the efflux ratio
[2]
  inhibition at 10 µM: 0.5%
DGK b
  inhibition at 10 µM: -4.9%
Kinetic solubility assay
  solubility kinetic: 186 µM
[7]
  chemical decomposition in medium by HPLC/MS (in words): Chemical decomposition was not detected
DGK g
  inhibition at 10 µM: -6.5%
PI3Ka E545K + p85
  inhibition at 10 µM: 22.8%
SPHK1
  inhibition at 10 µM: -1%
PI3K g
  inhibition at 10 µM: 2.1%
CHK b (CHKB)
  inhibition at 10 µM: 3.2%
PI3K b
  inhibition at 10 µM: -0.1%
PI4K2a
  inhibition at 10 µM: 10.4%
[4]
  PCT_LBF % (percentage of compound removed compared to liver blood flow): <45%
  Predicted in vivo clearance: <10 mL/min/kg
[4]; human
  Human Microsomal Metabolic Stability: Remaining %: 105%
[4]; human, Human Microsomal Metabolic Stability: Clint
  microsomal CLint: < 14 µL/min/mg
[4]; human, liver microsomes, Human Microsomal Metabolic Stability: Half-life
  half-life: > 1.67 h
PI3K a
  inhibition at 10 µM: -2.6%
DGK z
  inhibition at 10 µM: 4.7%
[6]; simulated gi fluid
  Matrix Stability: Remaining %: 97%
  half-life: > 10 h
PIP5K2A
  inhibition at 10 µM: -1.5%
SPHK2
  inhibition at 10 µM: -3.7%
CHK a (CHKA)
  inhibition at 10 µM: 13.1%
